Source: PubChem BioAssay AID489027 (Sanford-Burnham Center for Chemical Genomics, 2010)
pEC50: −log10 of the molar value. Active and inactive are the calls of the source. The rule behind the calls is not given here.

Each compound was assayed against UPR counterscreen luciferase reporter, luminescence (assay: luciferase reporter activation, UPR counterscreen line – cell-based, luminescence, counter-screen for adaptive UPR activator project, dose response (AID 489027)).
`Cn1nc(C(F)(F)F)c(/C=N/OC(=O)c2ccccc2Cl)c1SCc1ccccc1Cl` was tested, and the EC50 was “inactive”. `CC(C)N(C(=O)[C@H]1C[C@H](CC(=O)NCc2cccc(C(F)(F)F)c2)C(=O)N2CCc3c([nH]c4ccc(Cl)cc34)[C@]12C)C(C)C` was tested, and the EC50 was “inactive”. With `COc1ccc(-c2cc(=O)oc3c(C)c(OC(=O)c4cccs4)ccc23)cc1` the EC50 was > 80 µM (inactive). `Oc1cc(-c2cccnc2)cc2cccnc12` was tested, and the EC50 was “inactive”. With `CCc1cc2c(C)ccc(C)c2nc1SCC(=O)Nc1c[nH]c(=O)[nH]c1=O` the pEC50 was 4.77. In the case of `CC(=O)c1cccc(N=Cc2c(O)c3ccccc3oc2=O)c1`, the pEC50 was 5.11. With `CC1=C(CC/C(C)=N/NC(N)=S)C(C)(C)CCC1` the pEC50 was 4.86. For `CSc1ccccc1NC(=O)c1cc(-c2cccnc2)nc2ccc(Br)cc12`, the EC50 was > 80 µM (inactive). `COCc1cc(C)nc(OCC(=O)N/N=C/c2ccc(-c3cc([N+](=O)[O-])ccc3Cl)o2)c1C#N` gave a pEC50 of 4.87. In the case of `COc1ccc(N=c2oc3ccc(OC)cc3cc2-c2nc3ccccc3[nH]2)cc1`, the pEC50 was 5.17. `CCNC(=O)c1c(NC(=O)c2cc(-c3cc(C)ccc3O)n[nH]2)sc2c1CCCC2` was tested, and the EC50 was > 80 µM (inactive). `COc1cc(/C=N/Nc2nc(Nc3ccc(C)cc3)nc(-n3nc(C)cc3C)n2)cc(OC)c1OC` was tested, and the EC50 was > 80 µM (inactive). `CCOc1ccc(-n2c(C)cc(C(=O)CCl)c2C)cc1` showed a pEC50 of 5.17. `Cc1ccc(NS(=O)(=O)c2cc([N+](=O)[O-])ccc2N/N=C/c2sc(N3CCOCC3)nc2-c2ccccc2)c(C)c1` was tested, and the EC50 was > 80 µM (inactive). In the case of `N#Cc1c(-c2ccc3c(c2)OCO3)ccn2nc(-c3cccc(C(F)(F)F)c3)nc12`, the EC50 was “inactive”. For `CCCCCCCCCn1c2c(c(=N)c3c1CCC3)CCCC2`, the pEC50 was 5.05. For `Cc1ccc2c(=O)[nH]c(Nc3nc(C)cc(-c4ccccc4)n3)nc2c1`, the EC50 was > 80 µM (inactive). For `COc1ccc(/C=N/NC(=O)c2cccc([N+](=O)[O-])c2)c2ccccc12`, the EC50 was “inactive”. In the case of `CCn1c(/C=C/c2c(C)[nH]c3ccccc23)nc2ccccc2c1=O`, the EC50 was > 80 µM (inactive). In the case of `Cc1ccc2nc(/C(C#N)=C/c3ccc(O)c(O)c3)[nH]c2c1`, the pEC50 was 4.86. For `CC(C)(C)C(=O)NC(=S)NNC(=O)c1sc2ccccc2c1Cl`, the EC50 was > 80 µM (inactive). With `Cc1cc(N2CCN(c3ccc([N+](=O)[O-])c4cccnc34)CC2)c2ccccc2n1` the EC50 was “inactive”. In the case of `O=C(N/N=C/c1ccccc1Cl)c1[nH]c2ccc(Br)cc2c1-c1ccccc1`, the EC50 was “inactive”. In the case of `Cc1ccc(-n2nc3cc(C)c(NC(=S)NC(=O)/C=C/c4ccco4)cc3n2)cc1`, the pEC50 was 4.94. `N#CCC(=O)N/N=C/c1cn(Cc2ccc3ccccc3c2)c2ccccc12` showed a pEC50 of 4.81. In the case of `Cc1cccc(Nc2nc3c(S(=O)(=O)c4ccccc4)nnn3c3ccccc23)c1C`, the pEC50 was 4.91. For `COc1ccc(C2NCCc3c2[nH]c2ccccc32)cc1COc1ccc(F)cc1` (stereo unspecified), the pEC50 was 4.74. For `Cc1ccc2c(c1)C(c1ccc(N3CCOCC3)cc1)=NNC(c1cccs1)=N2`, the EC50 was “inactive”. For `O=c1oc(CCCO)cc2ccc(/C=C/c3cccc([N+](=O)[O-])c3)cc12`, the EC50 was > 80 µM (inactive). For `O=[N+]([O-])c1cc(-c2ccc(/C=N/c3nc4ccccn4c3-c3ccco3)o2)ccc1Cl`, the EC50 was > 80 µM (inactive). `CCCCCc1nc2c(c(=O)c3ccccc3n2C)c(=O)n1C1CCCCCC1` was tested, and the pEC50 was 4.82. With `O=c1cc(C(Cl)(Cl)Cl)oc2c1ccc1ccccc12` the EC50 was > 80 µM (inactive). `COc1cc(/C=C(/C#N)c2nc3ccccc3[nH]2)ccc1OCC(=O)Nc1ccccc1C` gave a pEC50 of 5.42. For `CCC[C@@H](CN[C@@H](CNC)[C@H](C)CC)NCC1CCC(C(C)(C)C)CC1` (stereo partly specified), the pEC50 was 5.16. Work on `COc1ccccc1CCNC(=O)C1CCN(c2nnc(C)c3c(C)n(-c4ccc(C)cc4)nc23)CC1` yielded a pEC50 of 4.74. In the case of `NS(=O)(=O)c1ccc(N/N=C2/CCCCC2C2CCCCC2)c([N+](=O)[O-])c1` (stereo unspecified), the pEC50 was 4.82. For `Cc1c(C(=O)Nc2nccs2)oc2ccc(Br)cc12`, the EC50 was > 80 µM (inactive). `COc1ccc(NC(=O)C(=O)N/N=C\c2ccc(CNC(=O)C(=O)Nc3ccc(C)c(C)c3)o2)c(OC)c1` showed a pEC50 of 5.38. With `CN(C)c1ccc(/C=N/NC(=O)c2ccc(NC(=O)c3ccccc3)cc2)cc1` the EC50 was “inactive”. `CCOc1ccc(NC(=S)NC(=O)/C=C/c2ccc(C)cc2)c([N+](=O)[O-])c1` was tested, and the EC50 was > 80 µM (inactive). `CCOC(=O)c1nnc(-c2ccc(C)cc2)nc1Sc1cccc(Cl)c1` was tested, and the EC50 was > 80 µM (inactive). For `CCOc1cc2c3c(c1)C(C)=CC(C)(C)N3C(=O)C2=O`, the EC50 was “inactive”. With `CC(C)C(=O)N(c1cc2sc(=O)oc2c2ccccc12)S(=O)(=O)c1cccs1` the pEC50 was 4.79. For `Cc1cc(NC(=O)c2cc(-c3ccncc3)nc3ccccc23)ccc1Br`, the EC50 was > 80 µM (inactive). In the case of `COc1ccc(-c2nn(-c3ccccc3)cc2/C=N/N2C(=O)CSC2=S)cc1`, the EC50 was > 80 µM (inactive). In the case of `Cc1ccc(-n2nc3c(N4CCC(C(=O)NCCc5ccccc5C)CC4)nnc(C)c3c2C)cc1`, the EC50 was > 80 µM (inactive). In the case of `Cc1nn(Cc2ccccc2)c(C)c1NC(=O)CSc1nc(C2CC2)nc2c1cnn2-c1ccccc1`, the EC50 was “inactive”. Compound `CCOC(=O)N1CCN(S(=O)(=O)c2ccc(C(=O)Nc3nc4c(s3)CC(C)CC4)cc2)CC1` (stereo unspecified) has a pEC50 of 5.03. In the case of `CCc1ccc(NC(=O)C(CC)Sc2nc3cc4c(cc3c(=O)n2Cc2ccco2)OCO4)cc1` (stereo unspecified), the EC50 was > 80 µM (inactive). `CCOc1cc(/C=C(\C#N)c2[nH]nc(N)c2C#N)ccc1O` was tested, and the EC50 was > 80 µM (inactive). With `O=C1c2cccc3cc(Br)cc(c23)C(=O)N1Nc1ccc(Br)cc1` the EC50 was “inactive”. In the case of `Cc1ccc(Nc2nc3ccc(Cl)cc3n3cnnc23)cc1F`, the EC50 was “inactive”. In the case of `CCC(=O)Nc1nnc(SCC(=O)c2ccc3c(c2)Cc2ccccc2-3)s1`, the EC50 was “inactive”. For `O=C(NCC1CC1)c1cccc2c1C(=O)c1ccc(-c3ccc(OC(F)(F)F)cc3)cc1S2(=O)=O`, the EC50 was > 80 µM (inactive). With `Cc1cnc(NC(=O)c2cc3c(C)nn(Cc4ccccc4Cl)c3s2)s1` the EC50 was > 80 µM (inactive). With `COc1c(Cl)cc(Cl)cc1/C=N/NC(=O)c1nnn(-c2nonc2N)c1CN1CCC(C)CC1` the EC50 was “inactive”. In the case of `Cc1ccc2c(c1)C(=O)C(=O)N2Cc1ccc(Br)cc1`, the EC50 was “inactive”. `Cc1ccc2c(c1)C(c1ccc([N+](=O)[O-])cc1)=NNC(c1ccc(Br)cc1)=N2` was tested, and the EC50 was > 80 µM (inactive). With `COc1cccc(-n2c(SCC(=O)N3CCc4ccccc43)nnc2-c2c[nH]c3ccccc23)c1` the EC50 was > 80 µM (inactive). `Cc1cc(C)nc(SCc2ccc(C(=O)N/N=C/c3cccc(O)c3O)cc2)n1` gave a pEC50 of 5.19. For `COc1ccc(CCn2c(C3CCCCC3)nc3c(c(=O)c4ccccc4n3C)c2=O)cc1`, the EC50 was > 80 µM (inactive). `CC1CCCCC1N1CN=C(Nc2nc3ccccc3s2)NC1` (stereo unspecified) was tested, and the EC50 was > 80 µM (inactive). `CCc1nc(N=Nc2c(O)[nH]c3ccccc23)c2c3c(sc2n1)CCC3` showed a pEC50 of 4.97. `COc1cc(NC(=O)c2ccco2)c(C(=O)OCC(=O)c2c[nH]c3ccccc23)cc1OC` was tested, and the EC50 was > 80 µM (inactive). `CCCCCCCCCCOC(=O)Cn1c(COc2ccccc2OC)[n+](C)c2ccccc21` showed a pEC50 of 4.89. With `CCOc1ccccc1CNC(=O)C1CCN(c2nnc(C)c3c(C)n(-c4ccc(C)cc4)nc23)CC1` the EC50 was > 80 µM (inactive). For `O=C(NCc1ccccc1Br)c1cccc2c1C(=O)c1ccc(-c3ccc(OC(F)(F)F)cc3)cc1S2(=O)=O`, the pEC50 was 5.04. With `COc1ccc2cc1Oc1ccc(cc1)CC1c3c(cc(OC)c4c3Oc3cc5c(cc3O4)CCNC5C2)CCN1C` (stereo unspecified) the EC50 was > 80 µM (inactive). `CCCCN(CC)S(=O)(=O)c1ccc(C(=O)N=c2sc3cc(NC(C)=O)ccc3n2C)cc1` showed a pEC50 of 5.28. With `CCCOC(=O)c1cccc(Nc2nc(-c3cccnc3)nc3ccccc23)c1` the EC50 was > 80 µM (inactive). For `CCOC(=O)c1c(NC(=O)c2cc(-c3ccc(O)cc3)on2)sc(C(C)=O)c1C`, the EC50 was > 80 µM (inactive). In the case of `O=C1c2ccccc2C(=O)N1/N=C/c1ccc(O)c(O)c1`, the EC50 was “inactive”. With `COc1cc(/C=C/c2ccc3cccc(O)c3n2)ccc1O` the pEC50 was 5.12. `O=C1NC(=O)N(Cc2ccccc2Cl)C(=O)/C1=C/c1cccs1` was tested, and the pEC50 was 4.89. `COC(=O)Cc1csc(/N=C/c2c(O)n(-c3cccc(C(F)(F)F)c3)c(=O)c3ccccc23)n1` was tested, and the EC50 was > 80 µM (inactive). In the case of `CCOC(=O)c1c(NC(=O)/C=C/C(=O)O)sc(C)c1-c1ccc(C(C)(C)C)cc1`, the EC50 was > 80 µM (inactive). Work on `O=C(/C=C/c1ccccc1)c1ccccc1O` yielded a pEC50 of 4.88. For `COc1ccc(Cn2c(SCc3ccccc3C)nc3cc(OC)c(OC)cc3c2=N)cc1`, the pEC50 was 5.02. For `COc1cc(-c2ccc3oc(-c4ccsc4)cc3c2)cc(OC)c1OC`, the EC50 was > 80 µM (inactive). For `CCOC(=O)c1nnc(-c2ccc(C)cc2)nc1Oc1ccc(Cl)cc1Cl`, the pEC50 was 4.88. With `Cn1nnnc1Sc1ncnc2scc(-c3ccc(Cl)cc3)c12` the pEC50 was 4.77. For `Cc1ccc(NC(=O)COc2ccc(/C=C3/SC(=Nc4ccccc4)N(Cc4cccnc4)C3=O)cc2)cc1`, the pEC50 was 4.71. In the case of `Cc1ccc(C(=O)N2N=C(c3ccc(Br)cc3)CC2c2ccccc2O)cc1` (stereo unspecified), the pEC50 was 4.84. For `CCCn1c(Nc2nc3ccccc3n2C)nc2ccccc21`, the EC50 was “inactive”. For `O=C(CSCc1ccc(Cl)cc1)Nc1ccc(-c2nnc(-c3ccccc3)o2)cc1`, the EC50 was > 80 µM (inactive). In the case of `Cc1nc(NC(=O)c2cc3c(C)nn(-c4ccccc4)c3s2)sc1C(=O)Nc1ccccc1`, the EC50 was “inactive”. For `CCOc1ccccc1-n1c(SCC(=O)Nc2ccc(CC)cc2)nc2n[nH]c(C)c2c1=N`, the pEC50 was 5.28. In the case of `Cc1cccc2cc(C(c3nnnn3Cc3ccccc3)N3CCCc4ccccc43)c(=O)[nH]c12` (stereo unspecified), the EC50 was “inactive”. `COc1ccc([N+](=O)[O-])cc1COc1ccc2c(-c3ccccc3)cc(=O)oc2c1` was tested, and the EC50 was “inactive”. With `Oc1cccc2ccc(/C=C/c3ccc(Br)s3)nc12` the EC50 was “inactive”. With `CCN(CC)S(=O)(=O)c1ccc2c(c1)C(=NO)c1cc(S(=O)(=O)N(CC)CC)ccc1-2` the EC50 was > 80 µM (inactive). `COc1cc(SC#N)ccc1N=Cc1c(C)[nH]n(-c2ccc(Cl)cc2)c1=O` showed a pEC50 of 5.13. With `Cc1cc(C)c2c(c1)/C(=N/Nc1ccc(S(N)(=O)=O)cc1[N+](=O)[O-])CCC2` the EC50 was > 80 µM (inactive). In the case of `COc1cc(/C=C2/C(=N)N3C=CSC3=NC2=O)ccc1OCCCOc1cc(C)ccc1C`, the EC50 was > 80 µM (inactive). Compound `N#Cc1ccc(-c2ccc(Cl)cc2)nc1SCC(=O)c1cccc(Cl)c1` has a pEC50 of 5.09. In the case of `CCc1ccc(-n2c(SCC(=O)c3ccc4c(c3)NC(=O)CO4)nc3ccccc3c2=O)cc1`, the pEC50 was 5.03.
